# Assay results from patent US20250084082A1, “HUPERZINE B CRYSTAL AND PREPARATION AND APPLICATION THEREOF” (priority 2021, published 2025).
# How the values were obtained:
# [1] = Hygroscopicity test (Chinese Pharmacopoeia 2020); assay type: physicochemical
# Procedure: The test was carried out with reference to the requirements of hygroscopicity test in the General Technical Requirements of Part IV of the Chinese Pharmacopoeia 2020 Edition.
# Methods: A dry stoppered glass weighing flask (outer diameter 50 mm, height 15 mm) was placed in a suitable 25° C.±1° C. constant temperature desiccator (with ammonium chloride or ammonium sulfate saturated solution placed in the lower part) or an artificial climate chamber (with a set temperature of 25° C.±1° C. and a relative humidity of 80%±2%) prior to the test, and the weight (m1) was weighed precisely.
# The thickness of the test sample was generally 1 mm, and the weight (m2) was weighed precisely. The weighing flask was left open, and was placed in the above constant temperature and humidity conditions together with the cap of the flask for 24 hours.
# The weighing flask was closed with the cap and weighed precisely (m3).
# BuchE = molecular target: T1, BuchE (Rattus norvegicus, UniProt Q9JKC1); experiment: Cholinesterase inhibitory activity in vivo: BuchE activity in rat serum after gavage; set-up: species or system SD rats
# T1 construct: The effect of Huperzine B on BuchE activity in the serum of rats; from tissue; host or cells: SD rat serum (ex vivo after gavage)
# T1 sequence (Q9JKC1 24-597): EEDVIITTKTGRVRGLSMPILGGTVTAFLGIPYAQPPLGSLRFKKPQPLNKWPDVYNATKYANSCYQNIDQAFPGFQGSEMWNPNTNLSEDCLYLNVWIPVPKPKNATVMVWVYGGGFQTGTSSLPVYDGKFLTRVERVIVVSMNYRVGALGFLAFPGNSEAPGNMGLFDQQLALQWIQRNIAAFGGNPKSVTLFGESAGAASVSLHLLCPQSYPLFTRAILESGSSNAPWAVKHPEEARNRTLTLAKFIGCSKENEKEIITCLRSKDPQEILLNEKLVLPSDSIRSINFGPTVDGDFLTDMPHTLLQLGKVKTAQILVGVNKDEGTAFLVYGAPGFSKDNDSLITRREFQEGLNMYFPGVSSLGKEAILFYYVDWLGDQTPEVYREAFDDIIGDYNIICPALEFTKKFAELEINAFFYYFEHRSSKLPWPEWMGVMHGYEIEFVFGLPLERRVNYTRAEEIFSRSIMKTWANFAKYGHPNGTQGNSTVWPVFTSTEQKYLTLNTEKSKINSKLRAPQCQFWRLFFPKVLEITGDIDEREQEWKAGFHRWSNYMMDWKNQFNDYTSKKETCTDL
# Procedure: Experimental animals: SD rats, clean grade, male, body weight 180-200 g, provided by Shanghai SLAC Laboratory Animal Co., Ltd, free to drink and ingest during the experimental period, indoor temperature 22-24° C., humidity 45-70%.
# Main reagents: S-Butyrylthiocholine iodide, S-Acetylthiocholine iodide, Kaumas Brilliant Blue, sodium hydroxide, ethyl carbamate (urethane), phosphoric acid, sodium chloride, sodium bicarbonate, potassium dihydrogen phosphate, ethanol, sodium dodecyl sulfate, 5,5′-Dithiobis-(2-nitrobenzoic acid) (DTNB), hydrochloric acid; the above chemical reagents were purchased from Sinopharm Chemical Reagent Co., Ltd. Physiological saline, product of Shanghai Bangjing Industry Co., Ltd; bovine serum albumin, purchased from Meilun Biologicals.
# The equation for calculating the activity and the activity rate of “butyrylcholinesterase” was the same as that for “acetylcholinesterase”.
# Statistical analysis: SPSS 18 statistical software and EXCEL were applied. Measurement data were expressed as “mean±standard deviation (x±s)”, t-test was used for comparison between two groups, and LSD method was used for pairwise comparison between groups when there was homogeneity of variance, and Dunnett's method was used for analysis when there was heterogeneity of variance. P<0.05 indicates significant differences.
# [2] = Stability of crystals: high humidity test (RH 75±5%); assay type: physicochemical; conditions: around 25° C.
# Text: (§1) The conditions and methods for detecting the relevant substances involved in the present invention are high performance liquid chromatography determination.
# The samples were taken and tested on day 5 and day 10, respectively, and the results were compared with that of day 0.
# [3] = Stability of crystals: strong light irradiation test (4,500±500 Lx); assay type: physicochemical
# Text: as §1
# The distance was adjusted so that the light intensity was 4,500±500 Lx. The samples were taken and tested on day 5 and day 10, respectively, and the results were compared with that of day 0.
# [4] = Stability of crystals: high temperature test (60° C.); assay type: physicochemical
# Text: as §1
# The samples were taken and tested on day 5 and day 10, respectively, and the results were compared with those on day 0.The results are shown in Table 5.
# [5] = 25° C.±1° C., relative humidity 80%±2%, 24 hours
Compound,"Percentage of weight gain (%) [1, 5]",Appearance ([2]; day 0),Content ([2]; day 0),Moisture ([2]; day 0),Appearance ([2]; day 5),Content ([2]; day 5),Moisture ([2]; day 5),Appearance ([2]; day 10),Content ([2]; day 10),Moisture ([2]; day 10),Appearance ([3]; day 0),Content ([3]; day 0),relevant substances ([3]; day 0),Appearance ([3]; day 5),Content ([3]; day 5),relevant substances ([3]; day 5),Appearance ([3]; day 10),Content ([3]; day 10),relevant substances ([3]; day 10),Appearance ([4]; day 0),other results
"CC1=CC2Cc3[nH]c(=O)ccc3C3(C1)NCCCC23 [Crystal form A, (4aR, 5R, 10bR)-1,2,3,4,4a,4,6,10b octahydro-12-methyl-5,10b-propeno-1,7-phenanthrolin-8 (7H)-one]",0.05%,Off-white powder,100.1%,6.93%,Off-white powder,100.2%,6.95%,Off-white powder,99.9%,6.98%,Off-white powder,100.1%,0.12,Off-white powder,99.8%,0.22,Off-white powder,98.9%,0.28,Off-white,"Conclusion: (hygroscopicity) [1, 5]: No or almost no; hygroscopicity (in words) ([1]; compared with Huperzine B crystal form B): low hygroscopicity; effect on BuchE activity in the rat serum (in words) (BuchE; rat serum): certain inhibitory effect; Content ([4]; day 0): 100.1%; relevant substances ([4]; day 0): 0.12; Appearance ([4]; day 5): Off-white; Content ([4]; day 5): 100.2%; relevant substances ([4]; day 5): 0.19; Appearance ([4]; day 10): Off-white; Content ([4]; day 10): 99.7%; relevant substances ([4]; day 10): 0.21"
"CC1=CC2Cc3[nH]c(=O)ccc3C3(C1)NCCCC23 [Crystal form B, (4aR, 5R, 10bR)-1,2,3,4,4a,4,6,10b octahydro-12-methyl-5,10b-propeno-1,7-phenanthrolin-8 (7H)-one]",2.88%,Off-white powder,99.8%,6.13%,Off-white powder,99.7%,7.13%,Off-white powder,99.6%,7.53%,Off-white powder,99.8%,0.18,Off-white powder,99.5%,0.32,Off-white powder,98.6%,0.49,Off-white,Content ([4]; day 0): 99.8%; relevant substances ([4]; day 0): 0.18; Appearance ([4]; day 5): Off-white; Content ([4]; day 5): 99.5%; relevant substances ([4]; day 5): 0.29; Appearance ([4]; day 10): Off-white; Content ([4]; day 10): 98.9%; relevant substances ([4]; day 10): 0.41
"CC1=CC2Cc3[nH]c(=O)ccc3C3(C1)NCCCC23 [hupB, (4aR, 5R, 10bR)-1,2,3,4,4a,4,6,10b octahydro-12-methyl-5,10b-propeno-1,7-phenanthrolin-8 (7H)-one]",,,,,,,,,,,,,,,,,,,,,"inhibition at 0.12 mg/kg (BuchE; po, rat serum BuchE, 0.12 mg/kg by gavage, x±s, read-out: Inhibition rate (%)): 1 ± 46.5%; inhibition at 0.24 mg/kg (BuchE; po, rat serum BuchE, 0.24 mg/kg by gavage, x±s, read-out: Inhibition rate (%)): 19.9 ± 28.1%; inhibition at 0.48 mg/kg (BuchE; po, rat serum BuchE, 0.48 mg/kg by gavage, x±s, read-out: Inhibition rate (%)): 29.2 ± 13.7%; Serum BuchE (nmol/min/mg protein) (BuchE; rat serum, 0.12 mg/kg by gavage, x±s): 6.83 ± 3.21 nmol/min/mg protein; Serum BuchE (nmol/min/mg protein) (BuchE; rat serum, 0.24 mg/kg by gavage, x±s): 5.53 ± 1.94 nmol/min/mg protein; Serum BuchE (nmol/min/mg protein) (BuchE; rat serum, 0.48 mg/kg by gavage, x±s): 4.88 ± 0.94 nmol/min/mg protein"
